{
  "source": "patent US10010502B2",
  "about": "“Device that delivers a sustained low-dose of a myopia-suppressing drug, while preserving pupillary function and accommodation” (AMORPHEX THERAPEUTICS LLC, priority 2015, dated 2018)",
  "origin": "cited, not measured here",
  "key": {"myopia progression [1]": {"test_system": "myopia progression"}, "myopia progression [2]": {"test_system": "myopia progression", "remark": "listed apart in the source"}, "childhood myopia": {"test_system": "childhood myopia", "details": "68 myopic children, oral dose of 400 mg"}, "[3]": {"test_system": "muscarinic receptors of the pupil and ciliary body"}},
  "note": "“Also recorded” adds a separate entry of the source.",
  "data": [
    {"smiles": "CN1[C@@H]2CC[C@H]1C[C@@H](OC(=O)C(CO)c1ccccc1)C2", "note": "(some centres unmarked) [atropine]", "values": [
      {"measurement": "glare symptoms", "setting": "myopia progression [1]; 0.01% drops", "value": "some mild glare symptoms"},
      {"measurement": "visual acuity, quality of life, reading speed", "setting": "myopia progression [1]; 0.01% drops", "value": "no decrease in visual acuity, quality of life or reading speed"},
      {"measurement": "myopia progression", "setting": "myopia progression [1]; eye drop concentrations of 0.5% and 1.0%", "value": "≤ 0.2", "unit": "diopters/year"},
      {"measurement": "increase in pupil size easily tolerated by children", "setting": "myopia progression [1]; lower dose atropine drops, normal light conditions", "value": 1, "unit": "mm"},
      {"measurement": "effect on myopia progression", "setting": "myopia progression [1]; lowest dose eye drops studied, 0.01%", "value": "less-than-optimal but measureable effect"},
      {"measurement": "duration of dilation after one drop", "setting": "myopia progression [1]; one eye drop", "value": "several days or even a week or more"}
    ]},
    {"smiles": "CN1CCc2cccc3c2[C@H]1Cc1ccc(O)c(O)c1-3", "note": "[apomorphine]", "values": [
      {"measurement": "myopia progression in animal models", "setting": "myopia progression [2]", "value": "retard myopia progression"}
    ]},
    {"smiles": "Cn1cnc2[nH]c(=O)[nH]c(=O)c21", "note": "[7-methylxanthine]", "values": [
      {"measurement": "eye elongation and myopia progression", "setting": "childhood myopia", "value": "reduce eye elongation and myopia progression"},
      {"measurement": "safety / adverse effects", "setting": "childhood myopia", "value": "safe and without side effects; also recorded: no reported adverse effects"}
    ]},
    {"smiles": "N[C@@H](Cc1ccc(O)c(O)c1)C(=O)O", "note": "[levodopa]", "values": [
      {"measurement": "myopia progression in animal models", "setting": "myopia progression [2]", "value": "retard myopia progression"}
    ]},
    {"smiles": "CN1CCN(CC(=O)N2c3ccccc3C(=O)Nc3cccnc32)CC1", "note": "[pirenzepine]", "values": [
      {"measurement": "activity at muscarinic receptors of the pupil and ciliary body relative to atropine", "setting": "[3]", "value": "less active at the muscarinic receptors of the pupil and ciliary body than atropine"}
    ]}
  ]
}
